Test results reported in the supplement of paper PMC5908809.

Assays:
[1] = system: normal NK cells expanded with K562-aAPC; experiment: percent inhibition of viability; higher = more inhibition; conditions: 72 h, IL-2 2.5 ng/mL
Procedure: (§1)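 Drug sensitivity and resistance testing on K562-aAPC-expanded normal NK cells: 5 concentrations (10-fold steps over a 10,000-fold range), 72 h at 37 °C, viability by CellTiter-Glo normalised to DMSO and benzethonium chloride controls; DSS from the fitted curve.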

[2] = system: NK-YS (IL-2 2.5 ng/mL); experiment: as above; conditions: 72 h
[3] = system: YT (IL-2 2.5 ng/mL); experiment: as above; conditions: 72 h
[4] = system: normal primary NK cells, pool 3 (3 donors) (IL-2 2.5 ng/mL); experiment: as above; conditions: 72 h
[5] = system: NK-92 (IL-2 2.5 ng/mL); experiment: as above; conditions: 72 h
[6] = system: IMC-1 (IL-2 20 ng/mL); experiment: as above; conditions: 72 h
[7] = system: normal primary NK cells, pool 1 (3 donors), resting (IL-2 0 ng/mL); experiment: as above; conditions: 72 h
[8] = system: normal primary NK cells, pool 2 (3 donors) (IL-2 2.5 ng/mL); experiment: as above; conditions: 72 h
[9] = system: SNK-6 (IL-2 2.5 ng/mL); experiment: as above; conditions: 72 h
[10] = system: normal primary NK cells, pool 1 (3 donors) (IL-2 2.5 ng/mL); experiment: as above; conditions: 72 h
[11] = system: KAI3 (IL-2 2.5 ng/mL); experiment: as above; conditions: 72 h
[12] = system: DERL-7 (IL-2 2.5 ng/mL); experiment: as above; conditions: 72 h
[13] = system: NKL (IL-2 2.5 ng/mL); experiment: as above; conditions: 72 h
[14] = system: KHYG-1 (IL-2 2.5 ng/mL); experiment: as above; conditions: 72 h
[15] = system: normal NK cells expanded with K562-aAPC; experiment: drug sensitivity score (DSS) (DSS units); higher = more sensitive; extreme values may be limits of the assay; conditions: 72 h; IL-2 2.5 ng/mL
Procedure: as §1

[16] = system: NK-YS (IL-2 2.5 ng/mL); experiment: as above; conditions: 72 h
[17] = system: YT (IL-2 2.5 ng/mL); experiment: as above; conditions: 72 h
[18] = system: normal primary NK cells, pool 3 (3 donors) (IL-2 2.5 ng/mL); experiment: as above; conditions: 72 h
[19] = system: NK-92 (IL-2 2.5 ng/mL); experiment: as above; conditions: 72 h
[20] = system: IMC-1 (IL-2 20 ng/mL); experiment: as above; conditions: 72 h
[21] = system: normal primary NK cells, pool 1 (3 donors), resting (IL-2 0 ng/mL); experiment: as above; conditions: 72 h
[22] = system: normal primary NK cells, pool 2 (3 donors) (IL-2 2.5 ng/mL); experiment: as above; conditions: 72 h
[23] = system: SNK-6 (IL-2 2.5 ng/mL); experiment: as above; conditions: 72 h
[24] = system: normal primary NK cells, pool 1 (3 donors) (IL-2 2.5 ng/mL); experiment: as above; conditions: 72 h
[25] = system: KAI3 (IL-2 2.5 ng/mL); experiment: as above; conditions: 72 h
[26] = system: DERL-7 (IL-2 2.5 ng/mL); experiment: as above; conditions: 72 h
[27] = system: NKL (IL-2 2.5 ng/mL); experiment: as above; conditions: 72 h
[28] = system: KHYG-1 (IL-2 2.5 ng/mL); experiment: as above; conditions: 72 h

CCc1cnn2c(NCc3ccc[n+]([O-])c3)cc(N3CCCC[C@H]3CCO)nc12 [Dinaciclib] (max concentration tested 1000 nM)
percent inhibition of viability [%]
Conditions | 0.1 nM | 1 nM | 10 nM | 100 nM | 1000 nM
[1] | -4.8 | -2.24 | 30.3 | 101 | 102
[2] | -6.76 | -1.49 | 87.6 | 104 | 109
[3] | -2.44 | 2.09 | 93.8 | 108 | 111
[4] | -4.86 | 2.55 | 72 | 99.3 | 100
[5] | -2.1 | 2.09 | 67.9 | 108 | 111
[6] | -1.04 | -1.9 | 44 | 99.7 | 102
[7] | -4.86 | 1 | 21.3 | 91.6 | 92.6
[8] | -6.55 | 2.06 | 90.3 | 97.1 | 94.6
[9] | -7.12 | -37 | 81.4 | 47.2 | 48.2
[10] | -4.8 | 3.36 | 45.1 | 98.6 | 98.7
[11] | 5.48 | 7.7 | 54.5 | 108 | 110
[12] | 3.44 | 0.2 | 31.4 | 100 | 101
[13] | 4.95 | 3.07 | 88.7 | 109 | 112
[14] | -3.45 | -3.48 | 42.5 | 109 | 112

Conditions | drug sensitivity score
[15] | 22.4
[16] | 28.3
[17] | 29.8
[18] | 26.6
[19] | 25.9
[20] | 23.7
[21] | 20
[22] | 28.8
[23] | 23.7
[24] | 23.2
[25] | 24.6
[26] | 22.5
[27] | 28.8
[28] | 23.6

CN(C)CCN1C(=O)c2cccc3cc(N)cc(c23)C1=O [Amonafide] (max concentration tested 10000 nM)
percent inhibition of viability [%]
Conditions | 1 nM | 10 nM | 100 nM | 1000 nM | 10000 nM
[1] | 3.02 | 8.13 | 5.46 | 27.6 | 101
[2] | 2.33 | 5.61 | 10.8 | 30.8 | 102
[3] | 3.19 | 6.52 | 7.92 | 11.9 | 104
[4] | 5.44 | -1.16 | 1.98 | 8.95 | 98.1
[5] | 17.3 | 3.38 | 20.4 | 29.9 | 103
[6] | 1.06 | 3.1 | 5.35 | 15.8 | 100
[7] | 6.85 | -15.8 | -2.6 | 9.89 | 89.3
[8] | -8.57 | -3.21 | 0.92 | 6.12 | 95
[9] | 21.2 | 8.85 | 20.2 | 23.6 | 99.5
[10] | -3.82 | -10.6 | -8.88 | -6.27 | 97.5
[11] | 12.7 | 9.96 | 3.38 | 35.1 | 103
[12] | -0.77 | 2.31 | -12.6 | 19.6 | 101
[13] | -9.44 | 0.79 | -4.03 | 33.1 | 89.8
[14] | 6.52 | 2.23 | 12.9 | 14.8 | 103

Conditions | drug sensitivity score
[15] | 9.65
[16] | 10
[17] | 7.63
[18] | 6.87
[19] | 9.91
[20] | 8.17
[21] | 6.59
[22] | 6.19
[23] | 8.74
[24] | 4.95
[25] | 10.4
[26] | 8.69
[27] | 9.52
[28] | 8.07
